Laboratory results: ChEMBL document CHEMBL3885861, “Open TG-GATES”

Organism: Rattus norvegicus
Experiment: Open TG-GATES - Regimen: Single
Type: toxicity, organism-based, Sprague-Dawley
Set-up: regimen Single, gender Male, age 6 weeks
Settings: in vivo, iv, 0 mg/kg, route intravenous injection, dose level Control; for APTT / Bas / Eos / Fbg / Hb / Ht / Lym / MCH / MCHC / MCV / Mono / Neu / PT / Plat / RBC / Ret / WBC: tissue Blood; for KIDNEY_L / KIDNEY_R / KIDNEY_TOTAL: tissue Kidney; for LIVER: tissue Liver; for A/G / ALP / ALT / AST / BUN / CRE / Ca / Cl / DBIL / GLC / IP / K / LDH / Na / PL / RALB / TBIL / TC / TG / TP / gamma-GTP: tissue Plasma

## CN(C)c1ncnc2c1ncn2[C@@H]1O[C@H](CO)[C@@H](N)[C@H]1O [PUROMYCIN AMINONUCLEOSIDE]
3 h
  TERMINAL_BW: 211.9 g
  APTT: 22.7 s
  Bas: 0%
  Eos: 1%
  Fbg: 253 mg/dL
  Hb: 12.7 g/dL
  Ht: 37.2%
  Lym: 82.6%
  MCH: 21.3 pg
  MCHC: 34.1%
  MCV: 62.5 fL
  Mono: 2.2%
  Neu: 13.6%
  PT: 16.1 s
  Plat: 120.5 x10_4/uL
  RBC: 594.8 x10_4/ul
  Ret: 7.1%
  WBC: 122.5 x10_2/uL
  KIDNEY_L: 0.9 g
  KIDNEY_R: 0.9 g
  KIDNEY_TOTAL: 1.9 g
  LIVER: 9.5 g
  A/G: 1.2
  ALP: 1324.8 IU/L
  ALT: 32.6 IU/L
  AST: 66.4 IU/L
  BUN: 13.2 mg/dL
  CRE: 0.2 mg/dL
  Ca: 11 mg/dL
  Cl: 105.2 meq/L
  DBIL: 0.002 mg/dL
  GLC: 191.4 mg/dL
  IP: 7.7 mg/dL
  K: 4.6 meq/L
  LDH: 171.2 IU/L
  Na: 140.4 meq/L
  PL: 130.2 mg/dL
  RALB: 2.9 g/dL
  TBIL: 0.022 mg/dL
  TC: 68 mg/dL
  TG: 69 mg/dL
  TP: 5.3 g/dL
  gamma-GTP: 1 IU/L
6 h
  TERMINAL_BW: 212.9 g
  APTT: 22 s
  Bas: 0%
  Eos: 1%
  Fbg: 301.2 mg/dL
  Hb: 12.7 g/dL
  Ht: 37.4%
  Lym: 81.6%
  MCH: 21.8 pg
  MCHC: 34.1%
  MCV: 64 fL
  Mono: 2.6%
  Neu: 14%
  PT: 16 s
  Plat: 122.7 x10_4/uL
  RBC: 584.8 x10_4/ul
  Ret: 8.2%
  WBC: 100.6 x10_2/uL
  KIDNEY_L: 0.9 g
  KIDNEY_R: 0.9 g
  KIDNEY_TOTAL: 1.9 g
  LIVER: 9.4 g
  A/G: 1.3
  ALP: 1216.4 IU/L
  ALT: 37.8 IU/L
  AST: 70 IU/L
  BUN: 11.4 mg/dL
  CRE: 0.2 mg/dL
  Ca: 11.2 mg/dL
  Cl: 106.4 meq/L
  DBIL: 0 mg/dL
  GLC: 188.8 mg/dL
  IP: 8.3 mg/dL
  K: 4.3 meq/L
  LDH: 177.8 IU/L
  Na: 140.4 meq/L
  PL: 140.2 mg/dL
  RALB: 3 g/dL
  TBIL: 0.022 mg/dL
  TC: 80 mg/dL
  TG: 70.6 mg/dL
  TP: 5.3 g/dL
  gamma-GTP: 1.4 IU/L
9 h
  TERMINAL_BW: 212.6 g
  APTT: 21.9 s
  Bas: 0%
  Eos: 1%
  Fbg: 314.6 mg/dL
  Hb: 12.9 g/dL
  Ht: 37.9%
  Lym: 76.2%
  MCH: 20.7 pg
  MCHC: 33.9%
  MCV: 61 fL
  Mono: 2.8%
  Neu: 19.2%
  PT: 16.2 s
  Plat: 126.3 x10_4/uL
  RBC: 621.4 x10_4/ul
  Ret: 7.1%
  WBC: 94.1 x10_2/uL
  KIDNEY_L: 1 g
  KIDNEY_R: 1 g
  KIDNEY_TOTAL: 1.9 g
  LIVER: 9.1 g
  A/G: 1.2
  ALP: 1259.6 IU/L
  ALT: 38.2 IU/L
  AST: 73.2 IU/L
  BUN: 11.6 mg/dL
  CRE: 0.1 mg/dL
  Ca: 11.1 mg/dL
  Cl: 104.4 meq/L
  DBIL: 0 mg/dL
  GLC: 191.6 mg/dL
  IP: 9.4 mg/dL
  K: 4.3 meq/L
  LDH: 149.4 IU/L
  Na: 140 meq/L
  PL: 136.6 mg/dL
  RALB: 3 g/dL
  TBIL: 0.028 mg/dL
  TC: 73.8 mg/dL
  TG: 71.2 mg/dL
  TP: 5.5 g/dL
  gamma-GTP: 1.4 IU/L
24 h
  TERMINAL_BW: 221.6 g
  APTT: 21.5 s
  Bas: 0%
  Eos: 0.8%
  Fbg: 281.4 mg/dL
  Hb: 12.6 g/dL
  Ht: 37.2%
  Lym: 78.8%
  MCH: 21.1 pg
  MCHC: 34%
  MCV: 62.1 fL
  Mono: 2.8%
  Neu: 17%
  PT: 15.9 s
  Plat: 132.3 x10_4/uL
  RBC: 597.8 x10_4/ul
  Ret: 7%
  WBC: 96.2 x10_2/uL
  KIDNEY_L: 0.9 g
  KIDNEY_R: 1 g
  KIDNEY_TOTAL: 1.9 g
  LIVER: 10.4 g
  A/G: 1.3
  ALP: 1657.8 IU/L
  ALT: 47.4 IU/L
  AST: 78.2 IU/L
  BUN: 19.2 mg/dL
  CRE: 0.2 mg/dL
  Ca: 11 mg/dL
  Cl: 105 meq/L
  DBIL: 0 mg/dL
  GLC: 186.6 mg/dL
  IP: 7 mg/dL
  K: 4.7 meq/L
  LDH: 234.6 IU/L
  Na: 140.4 meq/L
  PL: 136.4 mg/dL
  RALB: 3 g/dL
  TBIL: 0.012 mg/dL
  TC: 68.4 mg/dL
  TG: 88.8 mg/dL
  TP: 5.3 g/dL
  gamma-GTP: 1.2 IU/L
